Assays:
Type in all cases: in vivo
[1] = tested on: AMAPA; assay: Pre-emergence biological efficacy; conditions: evaluated after 13 days; for pest or weed control at 250 g/ha: 312 h, read-out: damage to plant (100=total damage to plant; 0=no damage to plant), AMAPA
Procedure: (§1) Pre-Emergence Biological Efficacy
(§2) Seeds of weeds and/or crops were sown in standard soil in pots. After cultivation for one day under controlled conditions in a glasshouse (at 24/16° C., day/night; 14 hours light; 65% humidity), the plants were sprayed with an aqueous spray solution derived from the formulation of the technical active ingredient in acetone/water (50:50) solution containing 0.5% Tween 20 (polyoxyethylene sorbitan monolaurate, CAS RN 9005-64-5) to give the desired final dose of test compound.
(§3) The test plants were then grown under controlled conditions in the glasshouse (at 24/16° C., day/night; 14 hours light; 65% humidity) and watered twice daily. After 13 days the test was evaluated (100=total damage to plant; 0=no damage to plant).

[2] = tested on: ECHCG; assay: Pre-emergence biological efficacy; conditions: evaluated after 13 days; for pest or weed control at 250 g/ha: Echinochloa crus-galli, 312 h, read-out: damage to plant (100=total damage to plant; 0=no damage to plant), ECHCG
Procedure: as §1, §2, §3

[3] = tested on: EPHHL; assay: Pre-emergence biological efficacy; conditions: evaluated after 13 days; for pest or weed control at 250 g/ha: 312 h, read-out: damage to plant (100=total damage to plant; 0=no damage to plant), EPHHL
Procedure: as §1, §2, §3

[4] = tested on: IPOHE; assay: Pre-emergence biological efficacy; conditions: evaluated after 13 days; for pest or weed control at 250 g/ha: Ipomoea hederacea, 312 h, read-out: damage to plant (100=total damage to plant; 0=no damage to plant), IPOHE
Procedure: as §1, §2, §3

[5] = tested on: LOLPE; assay: Pre-emergence biological efficacy; conditions: evaluated after 13 days; for pest or weed control at 250 g/ha: 312 h, read-out: damage to plant (100=total damage to plant; 0=no damage to plant), LOLPE
Procedure: as §1, §2, §3

[6] = tested on: SETFA; assay: Pre-emergence biological efficacy; conditions: evaluated after 13 days; for pest or weed control at 250 g/ha: Setaria faberi, 312 h, read-out: damage to plant (100=total damage to plant; 0=no damage to plant), SETFA
Procedure: as §1, §2, §3

[7] = tested on: AMAPA; assay: Post-emergence biological efficacy; conditions: evaluated after 13 days; for pest or weed control at 250 g/ha: 312 h, read-out: damage to plant (100=total damage to plant; 0=no damage to plant), AMAPA
Procedure: (§4) Post-Emergence Biological Efficacy
as §2, with “8 days” for “one day”
(§5) The test plants were then grown on under controlled conditions in a glasshouse (at 24/16° C., day/night; 14 hours light; 65% humidity) and watered twice daily. After 13 days the test was evaluated (100=total damage to plant; 0=no damage to plant).

[8] = tested on: CHEAL; assay: Post-emergence biological efficacy; conditions: evaluated after 13 days; for pest or weed control at 250 g/ha: Chenopodium album, 312 h, read-out: damage to plant (100=total damage to plant; 0=no damage to plant), CHEAL
Procedure: as §4
as §2, with “8 days” for “one day”
as §5

[9] = tested on: DIGSA; assay: Post-emergence biological efficacy; conditions: evaluated after 13 days; for pest or weed control at 250 g/ha: Digitaria sanguinalis, 312 h, read-out: damage to plant (100=total damage to plant; 0=no damage to plant), DIGSA
Procedure: as §4
as §2, with “8 days” for “one day”
as §5

[10] = tested on: ECHCG; assay: Post-emergence biological efficacy; conditions: evaluated after 13 days; for pest or weed control at 250 g/ha: Echinochloa crus-galli, 312 h, read-out: damage to plant (100=total damage to plant; 0=no damage to plant), ECHCG
Procedure: as §4
as §2, with “8 days” for “one day”
as §5

[11] = tested on: ELEIN; assay: Post-emergence biological efficacy; conditions: evaluated after 13 days; for pest or weed control at 250 g/ha: 312 h, read-out: damage to plant (100=total damage to plant; 0=no damage to plant), ELEIN
Procedure: as §4
as §2, with “8 days” for “one day”
as §5

[12] = tested on: EPHHL; assay: Post-emergence biological efficacy; conditions: evaluated after 13 days; for pest or weed control at 250 g/ha: 312 h, read-out: damage to plant (100=total damage to plant; 0=no damage to plant), EPHHL
Procedure: as §4
as §2, with “8 days” for “one day”
as §5

[13] = tested on: IPOHE; assay: Post-emergence biological efficacy; conditions: evaluated after 13 days; for pest or weed control at 250 g/ha: Ipomoea hederacea, 312 h, read-out: damage to plant (100=total damage to plant; 0=no damage to plant), IPOHE
Procedure: as §4
as §2, with “8 days” for “one day”
as §5

[14] = tested on: LOLPE; assay: Post-emergence biological efficacy; conditions: evaluated after 13 days; for damage to plant (100=total damage to plant; 0=no damage to plant), LOLPE: 250 g/ha; for pest or weed control at 250 g/ha: 312 h, read-out: damage to plant (100=total damage to plant; 0=no damage to plant), LOLPE
Procedure: as §4
as §2, with “8 days” for “one day”
as §5

[15] = tested on: SETFA; assay: Post-emergence biological efficacy; conditions: evaluated after 13 days; for pest or weed control at 250 g/ha: Setaria faberi, 312 h, read-out: damage to plant (100=total damage to plant; 0=no damage to plant), SETFA
Procedure: as §4
as §2, with “8 days” for “one day”
as §5

SMILES | pest or weed control at 250 g/ha [1] [%] | pest or weed control at 250 g/ha [2] [%] | pest or weed control at 250 g/ha [3] [%] | pest or weed control at 250 g/ha [4] [%] | pest or weed control at 250 g/ha [5] [%] | pest or weed control at 250 g/ha [6] [%] | pest or weed control at 250 g/ha [7] [%] | pest or weed control at 250 g/ha [8] [%] | pest or weed control at 250 g/ha [9] [%] | pest or weed control at 250 g/ha [10] [%] | pest or weed control at 250 g/ha [11] [%] | pest or weed control at 250 g/ha [12] [%] | pest or weed control at 250 g/ha [13] [%] | pest or weed control at 250 g/ha [15] [%] | pest or weed control at 250 g/ha [14] [%] | other results
CCOC(=O)C1(C)CC(c2cc(-n3c(=O)n(C)c(=S)n(C)c3=O)c(F)cc2Cl)=NO1 (single isomer, unassigned) [Compound 47 (enantiomer A)] |  |  |  |  |  |  |  |  |  |  |  |  |  |  |  | damage to plant (100=total damage to plant; 0=no damage to plant), AMAPA ([1]; 250 g/ha): 100; damage to plant (100=total damage to plant; 0=no damage to plant), ECHCG ([2]; 250 g/ha): 60; damage to plant (100=total damage to plant; 0=no damage to plant), EPHHL ([3]; 250 g/ha): 100; damage to plant (100=total damage to plant; 0=no damage to plant), IPOHE ([4]; 250 g/ha): 90; damage to plant (100=total damage to plant; 0=no damage to plant), LOLPE ([5]; 250 g/ha): 50; damage to plant (100=total damage to plant; 0=no damage to plant), SETFA ([6]; 250 g/ha): 100; damage to plant (100=total damage to plant; 0=no damage to plant), AMAPA ([7]; 250 g/ha): 100; damage to plant (100=total damage to plant; 0=no damage to plant), CHEAL ([8]; 250 g/ha): 100; damage to plant (100=total damage to plant; 0=no damage to plant), DIGSA ([9]; 250 g/ha): 100; damage to plant (100=total damage to plant; 0=no damage to plant), ECHCG ([10]; 250 g/ha): 100; damage to plant (100=total damage to plant; 0=no damage to plant), ELEIN ([11]; 250 g/ha): 90; damage to plant (100=total damage to plant; 0=no damage to plant), EPHHL ([12]; 250 g/ha): 90; damage to plant (100=total damage to plant; 0=no damage to plant), IPOHE ([13]; 250 g/ha): 100; damage to plant (100=total damage to plant; 0=no damage to plant), LOLPE [14]: 70; damage to plant (100=total damage to plant; 0=no damage to plant), SETFA ([15]; 250 g/ha): 100
CCOC(=O)C1(C)CC(c2cc(-n3c(=O)n(C)c(=S)n(C)c3=O)c(F)cc2Cl)=NO1 (single isomer, unassigned) [Compound 47 (enantiomer B)] | 100 | 50 | 100 | 80 | 40 | 100 | 100 | 100 | 100 | 100 | 100 | 100 | 100 | 100 |  | damage to plant (100=total damage to plant; 0=no damage to plant), LOLPE [14]: 100
CCOC(=O)C1(C)CC(c2cc(-n3c(=O)n(C)c(=S)n(C)c3=O)ccc2Cl)=NO1 (stereo not shown) [Compound 36, Ethyl 3-[2-chloro-5-(3,5-dimethyl-2,6-dioxo-4-thioxo-1,3,5-triazinan-1-yl)phenyl]-5-methyl-4H-isoxazole-5-carboxylate] | 70 | 90 | 70 | 40 | 10 | 90 | 100 | 90 | 100 | 100 | 50 | 90 | 70 | 100 | 50 | 
Cn1c(=S)n(C)c(=O)n(-c2cc(C3=NOC(C)(C(=O)O)C3)c(Cl)cc2F)c1=O (stereo not shown) [Compound 45, 3-[2-chloro-5-(3,5-dimethyl-2,6-dioxo-4-thioxo-1,3,5-triazinan-1-yl)-4-fluoro-phenyl]-5-methyl-4H-isoxazole-5-carboxylic acid] | 100 | 100 | 100 | 100 | 100 | 100 | 100 | 100 | 100 | 100 | 100 | 100 | 100 | 100 | 100 | 
CCOC(=O)C1(C)CC(c2cc(-n3c(=O)n(C)c(=S)n(C)c3=O)c(F)cc2Cl)=NO1 (stereo not shown) [Compound 47, ethyl 3-[2-chloro-5-(3,5-dimethyl-2,6-dioxo-4-thioxo-1,3,5-triazinan-1-yl)-4-fluoro-phenyl]-5-methyl-4H-isoxazole-5-carboxylate] | 100 | 100 | 100 | 100 | 70 | 100 | 100 | 100 | 100 | 100 | 100 | 100 | 100 | 100 | 100 | 
Cn1c(=S)n(C)c(=O)n(-c2cc(C3=NOC(C)(CO)C3)c(Cl)cc2F)c1=O (stereo not shown) [Compound 49, 3-[4-chloro-2-fluoro-5-[5-(hydroxymethyl)-5-methyl-4H-isoxazol-3-yl]phenyl]-1,5-dimethyl-6-thioxo-1,3,5-triazinane-2,4-dione] | 100 | 90 | 100 | 90 | 90 | 100 | 100 | 100 | 90 | 70 | 90 | 100 | 100 | 100 | 60 | 
Cn1c(=S)n(C)c(=O)n(-c2cc(C3=NOC(C)(COS(C)(=O)=O)C3)c(Cl)cc2F)c1=O (stereo not shown) [Compound 53, [3-[2-chloro-5-(3,5-dimethyl-2,6-dioxo-4-thioxo-1,3,5-triazinan-1-yl)-4-fluoro-phenyl]-5-methyl-4H-isoxazol-5-yl]methyl methanesulfonate] | 100 | 60 |  | 0 | 70 | 100 | 90 | 90 | 70 | 30 | 80 | 90 | 80 | 40 | 40 | 
COC(=O)C1(C(F)(F)F)CC(c2cc(-n3c(=O)n(C)c(=S)n(C)c3=O)c(F)cc2Cl)=NO1 (stereo not shown) [Compound 262, Methyl 3-[2-chloro-5-(3,5-dimethyl-2,6-dioxo-4-thioxo-1,3,5-triazinan-1-yl)-4-fluoro-phenyl]-5-trifluoromethyl-4H-isoxazole-5-carboxylate] |  | 30 | 0 | 0 | 30 | 50 | 40 | 30 | 50 | 20 | 40 | 60 | 50 | 30 | 0 | 

Source: patent US12202821B2, “Herbicidal compounds” (SYNGENTA CROP PROTECTION AG, priority 2019, dated 2025)
